Test results from PubChem BioAssay (NCI).
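Cells were grown in 96-well plates and exposed to each compound for 48 hours at five concentrations; endpoints were interpolated linearly between bracketing concentrations, or set to the highest concentration if not reached. The concentration for 50% growth inhibition is given as GI50. TGI denotes the concentration required for complete inhibition of growth.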

What was measured:
Assay in all cases: DTP human tumour cell line panel, 48 h
OVCAR-8 ovarian = system: OVCAR-8 ovarian
EKVX NSCLC = system: EKVX NSCLC
NCI/ADR-RES ovarian = system: NCI/ADR-RES ovarian
SR leukemia = system: SR leukemia
K-562 leukemia = system: K-562 leukemia
UACC-257 melanoma = system: UACC-257 melanoma
SF-268 CNS = system: SF-268 CNS
COLO 205 colon = system: COLO 205 colon
SNB-75 CNS = system: SNB-75 CNS
OVCAR-4 ovarian = system: OVCAR-4 ovarian
KM12 colon = system: KM12 colon
UACC-62 melanoma = system: UACC-62 melanoma
IGROV1 ovarian = system: IGROV1 ovarian
SK-MEL-2 melanoma = system: SK-MEL-2 melanoma
HT29 colon = system: HT29 colon
SK-OV-3 ovarian = system: SK-OV-3 ovarian
NCI-H460 lung = system: NCI-H460 lung
TK-10 renal = system: TK-10 renal
A498 renal = system: A498 renal
MDA-MB-231 breast = system: MDA-MB-231 breast
HL-60(TB) leukemia = system: HL-60(TB) leukemia
CAKI-1 renal = system: CAKI-1 renal
SN12C renal = system: SN12C renal
UO-31 renal = system: UO-31 renal
T-47D breast = system: T-47D breast
MOLT-4 leukemia = system: MOLT-4 leukemia
A549 NSCLC = system: A549 NSCLC
ACHN renal = system: ACHN renal
PC-3 prostate = system: PC-3 prostate
HOP-92 NSCLC = system: HOP-92 NSCLC
RXF 393 renal = system: RXF 393 renal
RPMI-8226 leukemia = system: RPMI-8226 leukemia
HS 578T breast = system: HS 578T breast
SNB-19 CNS = system: SNB-19 CNS
786-0 renal = system: 786-0 renal
M14 melanoma = system: M14 melanoma
SK-MEL-28 melanoma = system: SK-MEL-28 melanoma
OVCAR-3 ovarian = system: OVCAR-3 ovarian
CCRF-CEM leukemia = system: CCRF-CEM leukemia
MDA-MB-435 = system: MDA-MB-435
MALME-3M melanoma = system: MALME-3M melanoma
BT-549 breast = system: BT-549 breast
SF-539 CNS = system: SF-539 CNS
DU-145 prostate = system: DU-145 prostate
SW-620 colon = system: SW-620 colon
OVCAR-5 ovarian = system: OVCAR-5 ovarian

## CCN1CCN(Cc2ccc(NC(=O)c3cccc(C#Cc4cccc5[nH]nc(N)c45)c3)cc2C(F)(F)F)CC1
OVCAR-8 ovarian
  GI50: 395 nM
  TGI: 1530 nM
EKVX NSCLC
  GI50: 1410 nM
  TGI: 2730 nM
NCI/ADR-RES ovarian
  GI50: 1590 nM
  TGI: 5210 nM
SR leukemia
  GI50: 238 nM
  TGI: 732 nM
K-562 leukemia
  TGI: 154 nM
UACC-257 melanoma
  GI50: 1050 nM
  TGI: 2820 nM
SF-268 CNS
  GI50: 620 nM
  TGI: 2010 nM
COLO 205 colon
  GI50: 185 nM
  TGI: 1280 nM
SNB-75 CNS
  GI50: 184 nM
  TGI: 890 nM
OVCAR-4 ovarian
  GI50: 198 nM
  TGI: 1610 nM
KM12 colon
  GI50: 302 nM
  TGI: 1330 nM
UACC-62 melanoma
  GI50: 509 nM
  TGI: 1770 nM
IGROV1 ovarian
  GI50: 68.1 nM
  TGI: 717 nM
SK-MEL-2 melanoma
  GI50: 352 nM
  TGI: 1340 nM
HT29 colon
  GI50: 118 nM
  TGI: 1160 nM
SK-OV-3 ovarian
  GI50: 802 nM
  TGI: 2200 nM
NCI-H460 lung
  GI50: 390 nM
  TGI: 1660 nM
TK-10 renal
  GI50: 631 nM
  TGI: 1750 nM
A498 renal
  GI50: 108 nM
  TGI: 1070 nM
MDA-MB-231 breast
  GI50: 120 nM
  TGI: 573 nM
HL-60(TB) leukemia
  GI50: 97.9 nM
  TGI: 1040 nM
CAKI-1 renal
  GI50: 485 nM
  TGI: 1760 nM
SN12C renal
  GI50: 584 nM
  TGI: 1930 nM
UO-31 renal
  GI50: 299 nM
  TGI: 1280 nM
T-47D breast
  GI50: 975 nM
  TGI: 3390 nM
MOLT-4 leukemia
  GI50: 227 nM
  TGI: 1160 nM
A549 NSCLC
  GI50: 1130 nM
  TGI: 2480 nM
ACHN renal
  GI50: 180 nM
  TGI: 933 nM
PC-3 prostate
  GI50: 1360 nM
  TGI: 3130 nM
HOP-92 NSCLC
  GI50: 350 nM
  TGI: 1890 nM
RXF 393 renal
  GI50: 287 nM
  TGI: 918 nM
RPMI-8226 leukemia
  GI50: 702 nM
  TGI: 3040 nM
HS 578T breast
  GI50: 518 nM
  TGI: 3190 nM
SNB-19 CNS
  GI50: 1070 nM
  TGI: 2300 nM
786-0 renal
  GI50: 402 nM
  TGI: 1320 nM
M14 melanoma
  GI50: 62.2 nM
  TGI: 547 nM
SK-MEL-28 melanoma
  GI50: 568 nM
  TGI: 1780 nM
OVCAR-3 ovarian
  GI50: 615 nM
  TGI: 2170 nM
CCRF-CEM leukemia
  GI50: 778 nM
  TGI: 3960 nM
MDA-MB-435
  GI50: 339 nM
  TGI: 1570 nM
MALME-3M melanoma
  GI50: 27.3 nM
  TGI: 422 nM
BT-549 breast
  GI50: 1100 nM
  TGI: 2410 nM
SF-539 CNS
  GI50: 205 nM
  TGI: 709 nM
DU-145 prostate
  GI50: 419 nM
  TGI: 1680 nM
SW-620 colon
  GI50: 343 nM
  TGI: 1590 nM
OVCAR-5 ovarian
  GI50: 685 nM
  TGI: 2070 nM
